These results are taken from publication PMC11122949, “Metabolic Blockade-Based Genome Mining of Sea Anemone-Associated Streptomyces sp. S1502 Identifies Atypical Angucyclines WS-5995 A–E: Isolation, Identification, Biosynthetic Investigation, and Bioactivities” (Marine Drugs, 2024).

One data set concerns MCF-7. Put plainly: MTT cytotoxicity assay, MCF-7. Format: cell-based, human. How it is done: (§1) Compounds 1–5 were tested for their cytotoxic activities against different normal and tumor human cell lines, the MTT assay was used to assess cytotoxicity as described previously. Briefly, different tumor cells and normal cells were seeded onto 96-well plates at the appropriate density and allowed to attach overnight. Drugs at various concentrations were added to the culture medium and cells were cultured for another 68 h at 37 °C. MTT (5 mg/mL, 20 μL/well) was then added to the wells for additional 4 h, and the medium was discarded before 150 μL of DMSO was added to dissolve the MTT-formazan crystals. Absorbance was measured at 540 nm, with background subtraction at 670 nm using Model 550 Microplate Reader (Bio-Rad, Hercules, CA, USA). The Bliss method was used to calculate the half maximal (50%) inhibitory concentration (IC50) values. Data represent the mean ± SD of at least three independent experiments.
Background: Tetrazolium dyes change colour on reduction, which living cells bring about.

The test system of a further data set is Huvec. Put plainly: MTT cytotoxicity assay, Huvec (normal cells). Format: cell-based. To be noted: 72 h, Huvec normal human cell line. How it is done:
as §1

Another data set has as its system fungi. The arrangement: method as in PMID 19798499. The settings on record: cited from earlier work.
Another data set concerns NCM-460. The experiment in a line: MTT cytotoxicity assay, NCM-460 (normal cells). It counts as cell-based. To be noted: 72 h. Here is the method:
as §1

Another data set has as its system RBE. Put plainly: MTT cytotoxicity assay, RBE. It counts as cell-based, human. The settings on record: 72 h. Here is the method:
as §1

The next data set has as its system BT-549. The experiment in a line: MTT cytotoxicity assay, BT-549. To be noted: BT-549, 72 h. Format: cell-based, human. Here is the method:
as §1

A further data set relates to A549. The experiment in a line: MTT cytotoxicity assay, A549. Format: cell-based, human. The settings on record: A549, 72 h. How it is done:
as §1

The test system of data set [1] is Eimeria tenella infections. Further details: method as in PMID 7451360. To be noted: animal experiments; cited from earlier work.
In data set [2] the test system is MCF-7, BT-549, RBE and A549; NCM-46 and Huvec. Put plainly: MTT cytotoxicity, whole panel of cell lines. It counts as cell-based. To be noted: four human cancer and two normal human cell lines. Here is the method: as §1
A further data set relates to Eimeria tenella. The experiment in a line: In vitro anticoccidial activity (qPCR). Format: cell-based. The settings on record: 48 h. Here is the method: The number of Eimeria tenella spores and the cells were seeded in a 24-well plate at a ratio of 1:1 and incubated for 6 h, and the medium was discarded and washed with PBS three times. Then, 500 μL of medium was added to each well, followed by the addition of the medium containing the compounds, the blank control group (no spores and no compounds) and positive control group (with spores but no compound) were set, and 10 μM of sulfaclozinium chloride sodium served as a control drug, and three replicates were set up. The culture remained in an incubator containing 5% CO2 at 38 °C for 48 h. After 48 h, the medium was discarded and washed with PBS three times, and the total RNA of each well was extracted and reverse-transcribed into cDNA. qPCR was used to detect the effects of the compounds on the growth and development of E. tenella.
Background: In qPCR the cycle at which signal appears reflects the starting amount.

The mark [3] stands for this setting: Homo sapiens, MCF7, MCF-7, 72 h.
[4] abbreviates: NCM460, NCM-460 normal human cell line.

Broadly, the IC50 is the concentration that gives 50% inhibition. Consider `COc1cc(C)cc(C(=O)O)c1C1=CC(=O)c2c(O)cccc2C1=O` [Compound 3, WS-5995B], for which the IC50 is 19.6 µM with MCF-7 (setting [3]); 7.67 µM in the data set on Huvec (Homo sapiens, HUVEC); 18.5 µM in the data set on NCM-460 (setting [4]); 16.8 µM in the data set on RBE (Homo sapiens); 5.97 µM in the data set on BT-549 (Homo sapiens); > 50 µM in the data set with A549 (Homo sapiens). The antifungal activity result with fungi is “antifungal activity”. Also, the “protective activity against Eimeria tenella infections” value in data set [1] is “excellent protective activity”.
On to `COc1cc(C)cc(C(=O)O)c1C1=C(O)C(=O)c2c(O)cccc2C1=O` [Compound 4, WS-5995C], for which the IC50 with MCF-7 (setting [3]) was > 50 µM; in the data set on Huvec (Homo sapiens, HUVEC), > 50 µM; in the data set with NCM-460 (setting [4]) it was > 50 µM; in the data set with RBE (Homo sapiens), > 50 µM; with BT-549 (Homo sapiens), > 50 µM; in the data set with A549 (Homo sapiens), > 50 µM. For the same compound, in data set [2], the “cytotoxic effects against the tested cell lines” value (shortened to “cytotoxic effects”) is “did not exhibit cytotoxic effects”. Besides, in the data set on Eimeria tenella, the “in vitro anti-E. tenella bioactivity” value is given as “not active”.
`CCOC(=O)c1cc(C)cc(OC)c1C1=C(O)C(=O)c2c(O)cccc2C1=O` [Compound 1, WS-5995 E]: the IC50 in the data set on MCF-7 (setting [3]) was > 50 µM; in the data set on Huvec (Homo sapiens, HUVEC) it was > 50 µM; with NCM-460 (setting [4]), > 50 µM; with RBE (Homo sapiens), > 50 µM; in the data set on BT-549 (Homo sapiens) it was > 50 µM; with A549 (Homo sapiens), > 50 µM. Moreover, the “cytotoxic effects” value in [2] was “did not exhibit cytotoxic effects”. The “in vitro anti-E. tenella bioactivity” value in the data set on Eimeria tenella was “only exhibited activity at high concentrations”.
As to `N.N.[Cl][Pt][Cl]` [Cisplatin, reference compound], the IC50 with MCF-7 (MCF-7, 72 h) came to 4.49 µM; in the data set on Huvec it was 5.26 µM; in the data set with NCM-460 (NCM-460 normal human cell line), 19 µM; in the data set with RBE, 4.26 µM; in the data set with BT-549, 14.2 µM; with A549 it was 9.34 µM.
In the case of `COc1cccc2c1C(=O)c1c(O)c3c(c(O)c1C2=O)C[C@@](O)(C(=O)CO)C[C@@H]3O[C@H]1C[C@H](N)[C@H](O)[C@H](C)O1` [Adriamycin, reference compound], the IC50 turned out to be 2.96 µM with MCF-7 (setting [3]); 3.87 µM in the data set with Huvec (Homo sapiens, HUVEC); 3.24 µM with NCM-460 (setting [4]); 3.62 µM in the data set on RBE (Homo sapiens); 6.42 µM in the data set with BT-549 (Homo sapiens); 4.62 µM in the data set on A549 (Homo sapiens).
Turning to `COc1cc(C)cc2c(=O)oc3c(c12)C(=O)c1cccc(O)c1C3=O` [Compound 2, WS-5995A], the IC50 is > 50 µM in the data set with MCF-7 (setting [3]); 31.2 µM with Huvec (Homo sapiens, HUVEC); 40.8 µM in the data set on NCM-460 (setting [4]); 21.4 µM in the data set on RBE (Homo sapiens); > 50 µM in the data set with BT-549 (Homo sapiens); 2.21 µM in the data set with Eimeria tenella (Eimeria tenella, read-out: anti-E. tenella activity IC50). Moreover, in the data set with A549 (Homo sapiens), the IC50 is > 50 µM. Moreover, the “in vitro anti-E. tenella bioactivity” value with Eimeria tenella is on record as “significant anticoccidial activity”. The “protective activity against Eimeria tenella infections” value in [1] was “excellent protective activity”.
`COC(=O)c1cc(C)cc(OC)c1C1=C(O)C(=O)c2c(O)cccc2C1=O` [Compound 5, WS-5995D]: the IC50 with MCF-7 (setting [3]) was > 50 µM; in the data set on Huvec (Homo sapiens, HUVEC) it was > 50 µM; in the data set with NCM-460 (setting [4]), > 50 µM; in the data set with RBE (Homo sapiens), > 50 µM; in the data set on BT-549 (Homo sapiens), > 50 µM; in the data set with A549 (Homo sapiens), > 50 µM. For the same compound, the “cytotoxic effects” value in data set [2] was “did not exhibit cytotoxic effects”. In addition, in the data set with Eimeria tenella, the “in vitro anti-E. tenella bioactivity” value is “only exhibited activity at high concentrations”.
